“And” between values parts separate entries of the source, which are not always exact repeats. Equal values may be shown once. “Also recorded” adds a separate entry of the source.
Experiments:
[1] = tested on: forebrain-committed neural progenitor cells; experiment: HD-DoE stage 5, 8-factor experiment (GDNF, BDNF, NT-3 ...): Somatostatin expression; type: cell-based, human; conditions: for impact on expression of Somatostatin: FIG. 24 dynamic profile, in words; for factor contribution, expression of Somatostatin: positive, 8-factor experiment of FIG. 23
Description: To investigate the effects of other factors on differentiation of forebrain-committed neural progenitor cells to Somatostatin interneuron cells, an additional HD-DoE experiment was performed for 3 days on cells that were treated with stage 1 to stage 4 medium for a total of 12 days prior to the new experiment. This experiment, the results of which are shown in FIG. 23, included eight effectors, GDNF, BDNF, NT-3, ß-NGF, Linoleic acid, 5-Cholesten-3β, LIF and TGF-β3. In this model, we focused on maximum expression of Somatostatin gene expressed in Somatostatin (+) interneurons (Urban-Ciecko and Barth (2016) Nature Reviews Neurosci. 17:401-409). When the model was optimized for maximum expression of Somatostatin, BDNF, NT-3, beta-NGF and Linoleic acid had the highest factor contributions, 25.7, 2, 19.9, 23.5, respectively.
Therefore, the latter were excluded in the recipe.

[2] = tested on: stage 2 neural stem cells; experiment: Factor criticality analysis, stage 3 recipe; type: cell-based, human; conditions: other five stage 3 factors present; for expression level of DLX1 when the factor is removed: 220 with all six factors; for expression level of LHX6 when the factor is removed: 240 with all six factors; for expression level of ASCL1 when the factor is removed: 1650 with all six factors
Description: (§1) To assess the impact of the elimination of each validated factor, dynamic profile analysis was used and compared the expression level of genes of interest in absence of each finalized factor while others are present.
In the stage 3 recipe, each of the six finalized factors were removed while the other five factors remained present and the expression levels of ASCL1, DLX1 and LHX6 were assessed compared to the presence of all six factors. […] As expected, in the absence of IGF-1, the value of DLX1 increases to 410, however, ASCL1 and LHX6 decreased to 1390 and 220, respectively.

[3] = tested on: stage 2 neural stem cells; experiment: HD-DoE stage 3 experiment: ASCL1, LHX6, DLX1 expression; type: cell-based, human; conditions: for factor contribution, expression of ASCL1: positive, model optimized for maximum ASCL1 at 1700
Description: To further guide the cells to medial ganglionic eminence progenitor fate, an additional HD-DoE experiment was performed for 3 days on cells that were treated with stage 1 and stage 2 media for total of 6 days prior to start of the experiment. This experiment included 13 effectors, LDN193189, A8301, GNF5837, AZD3147, GSI-XX, Takinib, PD0325901, PD173074, BLU9931, IGF-1, MHY1485, Purmorphamine and Prostratin. In this model, we focused on maximum expression of genes expressed in neuronal progenitor cells in medial ganglionic eminence (MGE) region including ASCL1, LHX6 and DLX1 (Silberberg et al. (2016) Neuron 92:59-74). When the model was optimized for maximum expression of ASCL1 at 1700, A8301, GSI-XX, Purmorphamine and Takinib, which is an inhibitor of TAK1 pathway, had the highest factor contributions, 18.1, 14.1, 12.7 and 10.1 respectively. […] MHY 1485 also had positive contribution however the factor was below 2 (FIG. 9).
Therefore, six effectors including A8301, GSI-XX, Takinib, GNF5837, IGF-1 and Purmorphamine were finalized as ingredients of stage 3 differentiation media. A representative recipe for Stage 3 differentiation is summarized below in Table 3.

[4] = tested on: human pluripotent stem cells; experiment: HD-DoE stage 1, additional experiment: FEZF2 expression; type: cell-based; conditions: dynamic profile, in words
Description: To identify the recipe for stage 1 of differentiation, 96 different combinations of effectors generated using Design-of-Experiments compression through D-optimality were robotically prepared. The effector combinations were prepared in a basal media and were subsequently added to the cells, which were then allowed to differentiate. Three days later RNA extraction was performed, and gene expression was obtained using quantitative PCR analysis. The data were normalized and modeled using partial least squares regression analysis to the effector design, resulting in the generation of gene-specific models, which after model tuning for maximal Q2 predictive power, provided explanation of the effectors ability to control the expression of individual genes, combinatorically, and individually. Solutions within the tested space could then be explored to address desirability. To further enhance the conditions for forebrain differentiation from pluripotency, an additional HD-DoE experiment was performed. Additional gene regulatory models were obtained that were used for preparation of the differentiation protocol. The factors in this experiment included LDN193189, PD173074, BLU9931, Purmorphamine, SC79, MK2206, ZM336372, PD0325901, CHIR99021, XAV939, UCLA-GP130, Tofacitinib and GO6983. […] Dynamic profile analysis was also used to assess the interaction between the effectors.

[5] = tested on: human pluripotent stem cells; experiment: Factor criticality analysis, stage 1 recipe (dynamic profile analysis); type: cell-based; conditions: 3500 with all factors; FIG. 12
Description: as §1, with “present. […] When Purmorphamine was removed, levels of FEZF2 and SIX3 were decreased to 1000 and below 3000, while levels of OTX2 increased to 6500.” for “present.”

[6] = tested on: medial ganglionic eminence (MGE)-derived neural progenitors; experiment: HD-DoE stage 4, 12-factor experiment: SOX6 expression; type: cell-based, human; conditions: for impact on expression of SOX6: dynamic profile, in words; for factor contribution, expression of SOX6: significant negative effect, model optimized for maximal SOX6
Description: These effectors are small chemical compounds or proteins. They are commonly used during the differentiation of stem cells to specific cell linage. The choice of the effectors was based on the current literature on forebrain neural induction and differentiation of neural progenitor cells to mature neurons.
To evaluate the effectors on SST differentiation, experiments with 8 or 12 factors were designed to assess the responses of cells to 48 or more combinations of effectors in a range of concentrations. To analyze the models, we focused on expression of genes involved in development and patterning of the forebrain interneurons maturation including LHX6 (Liodis et al. (2007) J. Neurosci. 27:3078-3089; Yuan et al. (2018) Elife 7: e37382), SOX6 (Azim et al. (2009) Nature Neurosci. 12:1238-1247; Batista-Brito et al. (2009) Neuron 63:466-481), DLX5 (de Lombares et al. (2019) Aging (Albany NY) 11:6638; Wang et al. (2010) J. Neurosci. 30:5334-5345) and ASCL1 (Barretto et al. (2020) J. Neurosci. Meth. 334:108548; Shi et al. (2016) J. Biol. Chem. 291:13560-13570). At later stages we focused on interneuron maturation genes including somatostatin and absence of Parvalbumin (Horn and Nicoll (2018) Proc. Natl. Acad. Sci. 115:589-594). The impacts of each effector on gene expression level are defined by a parameter called factor contribution that is calculated for each effector during the modeling.
To identify the recipe for differentiation at stage 4, at least 48 different combinations of effectors were robotically prepared by the Design-of-Experiments compression through D-optimality. The effector combinations were prepared in a basal media and were subsequently added to the cells, which were then allowed to differentiate. Three days later, RNA extraction was performed, and gene expression levels were examined using quantitative PCR analysis. The data was normalized and modeled using partial least squares regression analysis to the effector design, resulting in the generation of gene-specific models, which after model tuning for maximal predictive power, provided explanation of the effectors ability to control the expression of individual genes, combinatorically, and individually. Solutions within the tested space could then be explored to address desirability.
IGF-1 activates the IGF-1 pathway, promotes neuron axonal growth, and establishes the synapse of interneurons. GDNF is the […] and can activate the GDNF pathway. MK2206 is an AKT inhibitor and can inhibit cell proliferation and promote neuronal maturation. PD173074 and BLU-554 are FGFR inhibitors. The FGF pathway is required for the maintenance of neural progenitor cells. Inhibition of the FGFR pathway promotes neural maturation. GSI-XX is a notch pathway inhibitor. Notch pathway inhibits neural progenitor cell differentiation. Inhibition of the Notch pathway promotes neural differentiation.
To find the set of factors that have the potential to optimize SOX6 in this experiment, a new assessment was done through dynamic profile analysis with focus on maximal expression of SOX6.

[7] = tested on: forebrain-committed neural progenitor cells; experiment: HD-DoE stage 5, 8-factor experiment (JQ1, Indolactam-V ...): Somatostatin expression; type: cell-based, human
Description: To further guide the differentiation of forebrain-committed neural progenitor cells to somatostatin interneuron cells at stage 5, HD-DoE experiments were performed for 3 days after termination of stage 4 treatment. At this time, we focused on maximum expression of SST that was expressed in Somatostatin (+) interneurons and minimum expression of Parvalbumin that is another type of interneurons. This 8-factor experiment included JQ1, (−)-Indolactam-V, Oleic acid, BDNF, IGF-1, 2-phospho-L-Ascorbic acid, Albumax, MK2206. When the model was maximized for expression of Somatostatin, six effectors were identified that could increase its expression levels, including (−)-Indolactam-V, Oleic acid, BDNF, 2-phospho-L-ascorbic acid, Albumax, and MK2206, as shown in FIG. 21. Using dynamic profile analysis, the results of which are shown in FIG. 22, the model was modified to achieve the maximum expression level of Somatostatin and therefore (−)-Indolactam-V, BDNF, and 2-phospho-L-ascorbic acid were included while JQ-1, Oleic acid, Albumax and MK2206 were excluded. Considering the model at different optimization settings for maximum differentiation of cells toward ventral forebrain, the recipe for stage 5 of differentiation included (−)-Indolactam-V, BDNF, IGF-1, and 2-phospho-L-ascorbic acid from this HD-Doe experiment.

5-Cholesten-3β
impact on expression of Somatostatin [1]: negative impact

Cc1cccc(-c2nn(C(=S)Nc3ccccc3)cc2-c2ccnc3ccccc23)n1 [A8301]
expression level of DLX1 when the factor is removed [2]: did not change significantly | expression level of LHX6 when the factor is removed [2]: did not change significantly | expression level of ASCL1 when the factor is removed [2]: 1000 | impact on expression of ASCL1 ([3]; dynamic profile, in words): positive trends; also recorded: Positive impact | impact on expression of DLX1 ([3]; dynamic profile, in words): did not have a significant negative impact | impact on expression of LHX6 ([3]; dynamic profile, in words): positive trends; also recorded: Positive impact | factor contribution, expression of ASCL1 [3]: 18.1 and 18

Cc1ccc(NC(=O)Nc2cc(C(F)(F)F)ccc2F)cc1Nc1ccc2c(c1)NC(=O)/C2=C\c1ccc[nH]1 [GNF5837]
expression level of DLX1 when the factor is removed [2]: did not have a significant impact | expression level of LHX6 when the factor is removed [2]: 160 | expression level of ASCL1 when the factor is removed [2]: 1300 | factor contribution, expression of ASCL1 [3]: 9.4

COc1ccc2c(c1)c(C1=C(c3c[nH]c4ccccc34)C(=O)NC1=O)cn2CCCN(C)C [GO6983]
impact on expression of FEZF2 [4]: positive impact | expression level of FEZF2 when the factor is removed [5]: 3200

CCCCC/C=C\C/C=C\CCCCCCCC(=O)O [Linoleic acid]
impact on expression of Somatostatin [1]: positive effect; also recorded: positive impact | factor contribution, expression of Somatostatin [1]: 23.5

O=[N+]([O-])c1ccc(Nc2nc(N3CCOCC3)nc(N3CCOCC3)n2)cc1 [MHY 1485]
impact on expression of SOX6 [6]: negative effect | factor contribution, expression of SOX6 [6]: 9.5 | factor contribution, expression of ASCL1 [3]: below 2

CCCCCCCC/C=C\CCCCCCCC(=O)O [Oleic acid]
impact on expression of Somatostatin ([7]; FIG. 21/22, in words): increase; also recorded: positive impact | factor contribution, expression of Somatostatin ([7]; positive, 8-factor experiment of FIG. 21): 7.4

NC(=O)c1ccc(-c2nc(-c3ccc4c(c3)OCO4)c(-c3ccccn3)[nH]2)cc1 [SB431542]
impact on expression of SOX6 [6]: negative effect | factor contribution, expression of SOX6 [6]: 6.2

CCCn1/c(=N/C(=O)c2cccc(C(N)=O)c2)[nH]c2ccccc21 [Takinib]
expression level of DLX1 when the factor is removed [2]: 180 | expression level of LHX6 when the factor is removed [2]: 170 | factor contribution, expression of ASCL1 [3]: 10.1

CCCC(CCC)C(=O)O [Valproic acid]
impact on expression of SOX6 [6]: negative effect | factor contribution, expression of SOX6 [6]: 4.7

LIF: effector tested in the stage 5 HD-DoE experiment
impact on expression of Somatostatin [1]: negative impact

Substance P: member of the tachykinin neuropeptide family
impact on expression of SOX6 [6]: negative effect | factor contribution, expression of SOX6 [6]: 5.1

beta-NGF: effector tested in the stage 5 HD-DoE experiment
impact on expression of Somatostatin [1]: positive impact | impact on expression of Somatostatin ([1]; listed as β-NGF): positive effect | factor contribution, expression of Somatostatin [1]: 19.9

B1: NT-3: effector tested in the stage 5 HD-DoE experiment (protein, UniProt P20783 139-257, looked up)
Neurotrophin-3: YAEHKSHRGEYSVCDSESLWVTDKSSAIDIRGHQVTVLGEIKTGNSPVKQYFYETRCKEARPVKNGCRGIDDKHWNSQCKTSQTYVRALTSENNKLVGWRWIRIDTSCVCALSRKIGRT
impact on expression of Somatostatin [1]: positive effect; also recorded: positive impact | factor contribution, expression of Somatostatin [1]: 2

B2: TGF-β3: effector tested in the stage 5 HD-DoE experiment (protein, UniProt P10600 301-412, looked up)
Transforming growth factor …: ALDTNYCFRNLEENCCVRPLYIDFRQDLGWKWVHEPKGYYANFCSGPCPYLRSADTTHSTVLGLYNTLNPEASASPCCVPQDLEPLTILYYVGRTPKVEQLSNMVVKSCKCS
modifications: Transforming growth factor beta-3
impact on expression of Somatostatin [1]: negative impact
